Laboratory results: ChEMBL document CHEMBL4145540 (Eur J Med Chem, 2018)
Activity calls are given as the source filed them. The rule behind the calls is not given here.

How the values were obtained:
HeLa = assay: Antiproliferative activity against human HeLa cells after 2 days by MTT assay; format: functional, cell-based; conditions: 48 h
A549 [1] = assay: Antiproliferative activity against human A549 cells after 2 days by MTT assay; format: functional, cell-based; conditions: A549, 48 h
MDA-MB-231 [2] = assay: Antiproliferative activity against human MDA-MB-231 cells after 3 days by coulter counting method; format: functional, cell-based; conditions: MDA-MB-231, 72 h
HMEC-1 [3] = assay: Antiproliferative activity against HMEC1 cells after 2 days by MTT assay; format: functional, cell-based; conditions: Homo sapiens, HMEC-1, 48 h
[4] = Selectivity index, ratio of IC50 for antiproliferative activity against HEK293 cells to IC50 for antiproliferative activity against human HL60 cells; format: toxicity, cell-based; conditions: HEK293 cells versus HL60 cells, read-out: Ratio IC50
HT-29 = assay: Antiproliferative activity against human HT-29 cells after 2 days by MTT assay; format: functional, cell-based; conditions: HT-29, 48 h
[5] = Selectivity index, ratio of IC50 for antiproliferative activity against HEK293 cells to IC50 for antiproliferative activity against human MCF7 cells; format: toxicity, cell-based; conditions: HEK293 cells versus MCF7 cells, read-out: Ratio IC50
A549 [6] = assay: Cell cycle arrest in human A549 cells assessed as accumulation at G0/G1 phase at 135 nM after 20 hrs by propidium iodide staining based flow cytometry (reference value: 66 +/- 1%); format: functional
A549 [7] = assay: Cell cycle arrest in human A549 cells assessed as accumulation at S phase at 135 nM after 20 hrs by propidium iodide staining based flow cytometry (reference value: 16 +/- 1%); format: functional
[8] = Selectivity index, ratio of IC50 for antiproliferative activity against HEK293 cells to IC50 for antiproliferative activity against human HeLa cells; format: toxicity, cell-based; conditions: HEK293 cells versus HeLa cells, read-out: Ratio IC50
HL-60 = assay: Antiproliferative activity against human HL60 cells after 2 days by MTT assay; format: functional, cell-based; conditions: HL-60, 48 h
MCF7 = assay: Antiproliferative activity against human MCF7 cells after 2 days by MTT assay; format: functional, cell-based; conditions: MCF7, 48 h
[9] = Selectivity index, ratio of IC50 for antiproliferative activity against HEK293 cells to IC50 for antiproliferative activity against human HT-29 cells; format: toxicity, cell-based; conditions: HEK293 cells versus HT-29 cells, read-out: Ratio IC50
A549 [10] = assay: Cell cycle arrest in human A549 cells assessed as accumulation at G2/M phase at 135 nM after 20 hrs by propidium iodide staining based flow cytometry (reference value: 11 +/- 1%); format: functional
HEK293 = assay: Antiproliferative activity against HEK293 cells after 2 days by MTT assay; format: cell-based; conditions: Homo sapiens, HEK293, 48 h
A549 [11] = assay: Cell cycle arrest in human A549 cells assessed as accumulation at sub-G0 phase at 135 nM after 20 hrs by propidium iodide staining based flow cytometry (reference value: 6.6 +/- 0.1%); format: functional
A549 [12] = assay: Cell cycle arrest in human A549 cells assessed as accumulation at sub-G0 phase at 275 nM after 20 hrs by propidium iodide staining based flow cytometry (reference value: 6.6 +/- 0.1%); format: functional
MDA-MB-231 [13] = assay: Inhibition of EBI binding to beta-tubulin colchicine binding site in human MDA-MB-231 cells at 10 uM preincubated for 16 hrs followed by EBI addition and measured after 1.5 hrs by Western blot analysis; format: cell-based
A549 [14] = assay: Cell cycle arrest in human A549 cells assessed as accumulation at S phase at 275 nM after 20 hrs by propidium iodide staining based flow cytometry (reference value: 16 +/- 1%); format: functional
A549 [15] = assay: Cell cycle arrest in human A549 cells assessed as accumulation at G2/M phase at 275 nM after 20 hrs by propidium iodide staining based flow cytometry (reference value: 11 +/- 1%); format: functional
HMEC-1 [16] = assay: Vascular disruptive activity in HMEC1 cells assessed as disruption of preformed tubular networks after 4 hrs by matrigel based assay; format: functional, cell-based; conditions: Homo sapiens
A549 [17] = assay: Cell cycle arrest in human A549 cells assessed as accumulation at G0/G1 phase at 275 nM after 20 hrs by propidium iodide staining based flow cytometry (reference value: 66 +/- 1%); format: functional
A549 [18] = assay: Cell cycle arrest in human A549 cells assessed as accumulation at G2/M phase at 55 nM after 20 hrs by propidium iodide staining based flow cytometry (reference value: 11 +/- 1%); format: functional
A549 [19] = assay: Cell cycle arrest in human A549 cells assessed as accumulation at S phase at 55 nM after 20 hrs by propidium iodide staining based flow cytometry (reference value: 16 +/- 1%); format: functional
A549 [20] = assay: Disruption of microtubule network in human A549 cells assessed as appearance of compressed and fragmented nuclei at 220 nM after 16 hrs by Hoechst staining based immunofluorescence assay; format: cell-based
A549 [21] = assay: Cell cycle arrest in human A549 cells assessed as accumulation at G0/G1 phase at 55 nM after 20 hrs by propidium iodide staining based flow cytometry (reference value: 66 +/- 1%); format: functional
A549 [22] = assay: Disruption of microtubule network in human A549 cells assessed as appearance of tubulin aggregates at 220 nM after 16 hrs by Hoechst staining based immunofluorescence assay; format: cell-based
A549 [23] = assay: Cell cycle arrest in human A549 cells assessed as accumulation at sub-G0 phase at 55 nM after 20 hrs by propidium iodide staining based flow cytometry (reference value: 6.6 +/- 0.1%); format: functional
A549 [24] = assay: Cell cycle arrest in human A549 cells assessed as accumulation at S phase at 450 nM after 20 hrs by propidium iodide staining based flow cytometry (reference value: 16 +/- 1%); format: functional
A549 [25] = assay: Cell cycle arrest in human A549 cells assessed as accumulation at G0/G1 phase at 450 nM after 20 hrs by propidium iodide staining based flow cytometry (reference value: 66 +/- 1%); format: functional
A549 [26] = assay: Cell cycle arrest in human A549 cells assessed as accumulation at sub-G0 phase at 450 nM after 20 hrs by propidium iodide staining based flow cytometry (reference value: 6.6 +/- 0.1%); format: functional
A549 [27] = assay: Cell cycle arrest in human A549 cells assessed as accumulation at G2/M phase at 450 nM after 20 hrs by propidium iodide staining based flow cytometry (reference value: 11 +/- 1%); format: functional

| SMILES | IC50 (HeLa) | IC50 (A549 [1]) | IC50 (MDA-MB-231 [2]) | IC50 (HMEC-1 [3]) | IC50 (HT-29) | IC50 (HL-60) | IC50 (MCF7) | IC50 (HEK293) | other results |
| --- | --- | --- | --- | --- | --- | --- | --- | --- | --- |
| COc1ccc(/C=C\c2cc(OC)c(OC)c(OC)c2)cc1NC(=O)Oc1ccc(C(F)(F)F)cc1 | 21 nM | 270 nM | 21.5 nM | 30 nM | 27.6 nM | 40 nM | 9.2 nM | 57 nM | selectivity ratio [4]: 2 to 11; selectivity ratio [5]: 2 to 11; Activity (A549 [6]): 22%; Activity (A549 [7]): 14%; selectivity ratio [8]: 2 to 11; selectivity ratio [9]: 2 to 11; Activity (A549 [10]): 39%; Activity (A549 [11]): 26% |
| COc1ccc(OC(=O)Nc2cc(/C=C\c3cc(OC)c(OC)c(OC)c3)ccc2OC)cc1 | 200 nM | 550 nM | 69 nM | 120 nM | 350 nM | 50 nM | 230 nM | 130 nM | Activity (A549 [12]): 14%; inhibition (MDA-MB-231 [13]): Active; Activity (A549 [14]): 14%; Activity (A549 [15]): 46%; Activity (HMEC-1 [16]): Dose-dependent effect; Activity (A549 [17]): 25% |
| COc1ccc(/C=C\c2cc(OC)c(OC)c(OC)c2)cc1NC(=O)Oc1ccccc1C(F)(F)F | 15 nM | 110 nM | 13.7 nM | 19 nM | 16 nM | 6.7 nM | 44 nM | 4.1 nM | Activity (A549 [18]): 44%; Activity (A549 [19]): 15%; Activity (A549 [20]): Active; Activity (A549 [21]): 21%; Activity (A549 [22]): Active; Activity (A549 [23]): 20% |
| COc1ccc(/C=C\c2cc(OC)c(OC)c(OC)c2)cc1NC(=O)Oc1cccc(C)c1C | 40 nM | 900 nM | 66 nM | 140 nM | 175 nM | 59 nM | 16 nM | 80 nM | Activity (A549 [24]): 22%; Activity (A549 [25]): 24%; Activity (A549 [26]): 12%; Activity (A549 [27]): 42% |
